Results published in US20060074101A1, “Method of treating post operative nausea and vomiting” (Helsinn Healthcare SA, priority 2003, published 2006).
Structures can show the parent of a compound that is named as a salt. Where two headings read alike, the source gives them in different places.

Tests used:
[1] = in vivo, cited from earlier work
[2] = test system: PONV; conditions: Scuderi et al. (2002); cited from earlier work
[3] = test system: postoperative vomiting and nausea (PONV); experiment: Prevention of PONV using a single intravenous dose of palonosetron (hysterectomy patients); format: in vivo, human; conditions: for patients who had received rescue therapy: by 24 hours; for Time to Failure (hr) (median): emesis or rescue medication, whichever first; for patients who experienced one or more emetic episodes: at 12 hours; for patients who had experienced an emetic episode: at 24 hours; for patients who experienced an emetic episode: two hours postrecovery; for Nausea Mean Score / No Nausea (patients) / Severe Nausea (patients): during 24 hours after recovery
Experimental: A study was conducted to test the efficacy and safety of five doses of intravenously administered palonosetron for the prophylaxis of postoperative vomiting and nausea. A total of 381 women, 24-80 years of age, scheduled for abdominal or vaginal hysterectomy and having ASA physical status rating of I or II were enrolled in this study. All patients received balanced general anesthesia, including N2O plus an opiate. Study medication, palonosetron, was administered over 30 seconds through a peripheral IV line at skin closure at the conclusion of the surgical procedure.

[4] = test system: postoperative vomiting and nausea (PONV); experiment: Oral administration of palonosetron for prophylaxis of PONV (elective laparoscopic surgery patients); format: in vivo, human; conditions: for % no EE / % with CR: 4 hours after recovery; for % no EE / % with CR / % no EE (no emetic episodes) / % with CC (complete control) / % with CR (complete response): evaluable patients; for % no EE (no emetic episodes) / % with CC (complete control) / % with CR (complete response): 24 hours after recovery; for Nausea Mean Score / No Nausea (patients) / Severe Nausea (patients): during 24 hours after recovery; for patients free from emetic episodes: first 4 hours of recovery
Experimental: A study was performed to test the efficacy, safety, and pharmacokinetics of five doses of orally administered palonosetron for the prophylaxis of postoperative vomiting and nausea. Three hundred fifty-one patients, 308 women and 43 men, 19-75 years of age, scheduled for elective laparoscopic surgical procedures and having an ASA physical status rating of I and II were enrolled in this study. All patients received balanced general anesthesia, including […] plus an opiate. Doses of palonosetron were calculated based on thee patient's body weight at the screening visit, rounded to the nearest kilogram. Each dose was diluted to a total volume of 25 mL by adding sterile water to the dosing cup. The dosing cup was rinsed with 25 mL of sterile water and the patient also swallowed this 25 mL. Study medication was administered 2 hours prior to scheduled induction of anesthesia for surgeries requiring nasogastric suction and 1 hour prior to scheduled induction of anesthesia for all other laparoscopic surgical procedures.

[5] = Stability of palonosetron in solution; format: physicochemical; conditions: dependence on concentration
[6] = 0.1 μg/kg IV, 24 hours after recovery, evaluable patients
[7] = 0.3 μg/kg IV, 4 hours after recovery
[8] = 0.3 μg/kg IV, 24 hours after recovery, evaluable patients
[9] = 1 μg/kg IV, 4 hours after recovery
[10] = 1.0 μg/kg IV, 24 hours after recovery, evaluable patients
[11] = 3.0 μg/kg IV, 24 hours after recovery, evaluable patients
[12] = 30 μg/kg IV, 4 hours after recovery
[13] = 30 μg/kg IV, 24 hours after recovery, evaluable patients

Cc1nccn1CC1CCc2c(c3ccccc3n2C)C1=O (stereo not shown) [ondansetron]
serum half life [1]: ~5.5 h
serum half life ([1]; listed as Zofran): 5 to 6 h
patients requiring additional therapy after treatment [2]: 38-50%

O=C(O[C@@H]1C[C@@H]2C[C@H]3C[C@H](C1)N2CC3=O)c1c[nH]c2ccccc12 [dolasetron]
serum half life [1]: approximately 7.5 hours

CN1C2CCCC1CC(NC(=O)c1nn(C)c3ccccc13)C2 (stereo not shown) [Kytril, granisetron hydrochloride]
plasma half-life [1]: 1.77 to 17.73 h

Cl.O=C1c2cccc3c2[C@H](CCC3)CN1[C@@H]1CN2CCC1CC2 [palonosetron, (3aS)-2,3,3a,4,5,6-Hexahydro-2-[(S)-1-Azabicyclo[2.2.2]oct-3-yl]2,3,3a,4,5,6-hexahydro-1-oxo-1Hbenz[de]isoquinoline]
Duration of Effect: Emetic Episode (25th Percentile) ([3]; 0.1 μg/kg IV): 2.2 h
Duration of Effect: Emetic Episode, second line of values (percentile not given) ([3]; 0.1 μg/kg IV): >24 h
Duration of Effect: Rescue (50th percentile) ([3]; 0.1 μg/kg IV): 8.5 h
% with CR ([3]; 0.1 μg/kg IV, 4 hours after recovery): 57%
% no EE [3, 6]: 55%
% with CC (complete control) [3, 6]: 34%
% with CR (complete response) [3, 6]: 34%
patients who had received rescue therapy ([3]; 0.1 μg/kg IV): 59.6%
Time to Failure (hr) (median) ([3]; 0.1 μg/kg IV): 6.0 h
Duration of Effect: Emetic Episode (25th Percentile) ([3]; 0.3 μg/kg IV): 8.4 h
Duration of Effect: Emetic Episode, second line of values (percentile not given) ([3]; 0.3 μg/kg IV): >24 h
Duration of Effect: Rescue (50th percentile) ([3]; 0.3 μg/kg IV): 9.9 h
% no EE [3, 7]: 90%
% with CR [3, 7]: 72%
% no EE [3, 8]: 60%
% with CC (complete control) [3, 8]: 33%
% with CR (complete response) [3, 8]: 34%
patients who experienced one or more emetic episodes ([3]; 0.3 μg/kg IV): 29.9%
patients who had experienced an emetic episode ([3]; 0.3 μg/kg IV): 40.3%
patients who had received rescue therapy ([3]; 0.3 μg/kg IV): 59.7%
Time to Failure (hr) (median) ([3]; 0.3 μg/kg IV): 9.6 h
patients who experienced an emetic episode ([3]; 0.3 μg/kg IV): 10.4%
Duration of Effect: Emetic Episode (25th Percentile) ([3]; 1 μg/kg IV): 21.8 h
Duration of Effect: Emetic Episode, second line of values (percentile not given) ([3]; 1 μg/kg IV): >24 h
Duration of Effect: Rescue (50th percentile) ([3]; 1 μg/kg IV): 21.3 h
% no EE [3, 9]: 92%
% with CR [3, 9]: 69%
% no EE [3, 10]: 73%
% with CC (complete control) [3, 10]: 44%
% with CR (complete response) [3, 10]: 44%
patients who experienced one or more emetic episodes ([3]; 1 μg/kg IV): 14.5%
patients who had experienced an emetic episode ([3]; 1 μg/kg IV): 27.4%
patients who had received rescue therapy ([3]; 1 μg/kg IV): 51.6%
Nausea Mean Score ([3]; 1 μg/kg IV): 0.82
No Nausea (patients) ([3]; 1 μg/kg IV): 36.1%
Severe Nausea (patients) ([3]; 1 μg/kg IV): 3.3%
Time to Failure (hr) (median) ([3]; 1.0 μg/kg IV): 19.5 h
patients who experienced an emetic episode ([3]; 1 μg/kg IV): 6.5%
nausea reported versus placebo ([3]; 1 μg/kg, 3 μg/kg, and 30 μg/kg IV, 24-hour period following recovery): statistically significantly less nausea
Duration of Effect: Emetic Episode (25th Percentile) ([3]; 3 μg/kg IV): 4.9 h
Duration of Effect: Emetic Episode, second line of values (percentile not given) ([3]; 3 μg/kg IV): >24 h
Duration of Effect: Rescue (50th percentile) ([3]; 3 μg/kg IV): 8.0 h
% with CR ([3]; 3 μg/kg IV, 4 hours after recovery): 66%
% no EE [3, 11]: 61%
% with CC (complete control) [3, 11]: 30%
% with CR (complete response) [3, 11]: 30%
Nausea Mean Score ([3]; 3 μg/kg IV): 0.92
No Nausea (patients) ([3]; 3 μg/kg IV): 34.8%
Severe Nausea (patients) ([3]; 3 μg/kg IV): 3.0%
Time to Failure (hr) (median) ([3]; 3.0 μg/kg IV): 7.3 h
Duration of Effect: Emetic Episode (25th Percentile) ([3]; 30 μg/kg IV): >24 h
Duration of Effect: Emetic Episode, second line of values (percentile not given) ([3]; 30 μg/kg IV): >24 h
Duration of Effect: Rescue (50th percentile) ([3]; 30 μg/kg IV): 23.2 h
% no EE [3, 12]: 94%
% with CR [3, 12]: 66%
% no EE [3, 13]: 76%
% with CC (complete control) [3, 13]: 45%
% with CR (complete response) [3, 13]: 45%
patients who experienced one or more emetic episodes ([3]; 30 μg/kg IV): 13.4%
patients who had experienced an emetic episode ([3]; 30 μg/kg IV): 23.9%
patients who had received rescue therapy ([3]; 30 μg/kg IV): 50.7%
Nausea Mean Score ([3]; 30 μg/kg IV): 0.66
No Nausea (patients) ([3]; 30 μg/kg IV): 47.8%
Time to Failure (hr) (median) ([3]; 30 μg/kg IV): 15.0 h
patients who experienced an emetic episode ([3]; 30 μg/kg IV): 4.5%
patients free from emetic episodes ([3]; 0.3-, 1-, and 30-μg/kg IV groups (range), first 4 hours of recovery): 90-94%
dose at which the clinical response substantially plateaus ([3]; administered intravenously or orally): about 1 microgram/kilogram of body weight
patients who received rescue medication ([3]; palonosetron-treated patients IV (range over dose groups), at 8 hours): 35.5-50.7%
patients who received rescue therapy ([3]; palonosetron-treated patients IV (range over dose groups), within the first 2 hours): 21-31%
% no EE ([4]; 0.1 μg/kg oral): 73%
% with CR ([4]; 0.1 μg/kg oral): 60%
nausea, position of treatment group relative to other groups ([4]; 0.3 μg/kg oral, 24-hour period following recovery): intermediate to the placebo group and the other palonosetron treatment groups
% no EE ([4]; 0.3 μg/kg oral): 72%
% with CR ([4]; 0.3 μg/kg oral): 61%
% no EE (no emetic episodes) ([4]; 0.3 μg/kg oral): 50%
% with CC (complete control) ([4]; 0.3 μg/kg oral): 37%
% with CR (complete response) ([4]; 0.3 μg/kg oral): 37%
Nausea Mean Score ([4]; 0.3 μg/kg oral): 0.83
No Nausea (patients) ([4]; 0.3 μg/kg oral): 44.8%
Severe Nausea (patients) ([4]; 0.3 μg/kg oral): 3.4%
% no EE ([4]; 1 μg/kg oral): 81%
% with CR ([4]; 1 μg/kg oral): 70%
% no EE (no emetic episodes) ([4]; 1 μg/kg oral): 67%
% with CC (complete control) ([4]; 1 μg/kg oral): 58%
% with CR (complete response) ([4]; 1 μg/kg oral): 58%
Nausea Mean Score ([4]; 1 μg/kg oral): 0.64
No Nausea (patients) ([4]; 1 μg/kg oral): 52.8%
Severe Nausea (patients) ([4]; 1 μg/kg oral): 3.8%
patients free from emetic episodes ([4]; 1.0 μg/kg oral): 72%
% no EE ([4]; 3 μg/kg oral): 82%
% with CR ([4]; 3 μg/kg oral): 76%
% no EE (no emetic episodes) ([4]; 3 μg/kg oral): 63%
% with CC (complete control) ([4]; 3 μg/kg oral): 52%
% with CR (complete response) ([4]; 3 μg/kg oral): 52%
Nausea Mean Score ([4]; 3 μg/kg oral): 0.65
No Nausea (patients) ([4]; 3 μg/kg oral): 55.8%
Severe Nausea (patients) ([4]; 3 μg/kg oral): 7.7%
patients free from emetic episodes ([4]; 3 μg/kg oral): 81%
% no EE (no emetic episodes) ([4]; 10 μg/kg oral): 71%
% with CC (complete control) ([4]; 10 μg/kg oral): 57%
% with CR (complete response) ([4]; 10 μg/kg oral): 59%
Nausea Mean Score ([4]; 10 μg/kg oral): 0.71
No Nausea (patients) ([4]; 10 μg/kg oral): 51.1%
Severe Nausea (patients) ([4]; 10 μg/kg oral): 2.2%
patients free from emetic episodes ([4]; 10 μg/kg oral): 82%
% no EE ([4]; 30 μg/kg oral): 69%
% with CR ([4]; 30 μg/kg oral): 63%
% no EE (no emetic episodes) ([4]; 30 μg/kg oral): 65%
% with CC (complete control) ([4]; 30 μg/kg oral): 51%
% with CR (complete response) ([4]; 30 μg/kg oral): 53%
Nausea Mean Score ([4]; 30 μg/kg oral): 0.79
No Nausea (patients) ([4]; 30 μg/kg oral): 44.8%
Severe Nausea (patients) ([4]; 30 μg/kg oral): 5.2%
nausea reported versus placebo ([4]; 1, 3, 10, and 30 μg/kg oral, 24-hour period following recovery): statistically significantly less nausea
dose at which clinical response reached a plateau ([4]; orally administered): 1 µg/kg
stability in solution [5]: stability of palonosetron increases in solution as its concentration decreases
